The target of data set [1] is T1, small-conductance Ca2+-activated K+ channel, subtype 3 (SK3) (Homo sapiens, UniProt Q9UGI6).
T1 construct: expressed in transfected cells; host or cells: HEK293 cells stably transfected with pNS3_hSK3
The experiment in a line: Whole-cell patch-clamp recording of SK3 current in HEK293 cells stably expressing hSK3. The format is cell-based. The conditions noted are these: baseline current at -20 mV, 300 nM free Ca2+. On the procedure:
The ionic current through small-conductance Ca^2+-activated K^+ channels (SK channels, subtype 3) is recorded using the whole-cell configuration of the patch-clamp technique.
The small-conductance Ca^2+-activated K^+ channel, subtype 3 (SK3) was cloned from human skeletal muscle and stably expressed in HEK293 cells.
Human SK3 (hSK3) was sub-cloned into the expression vector pNS3n, a customized vector derived from pcDNA3 (InVitrogen) to give the plasmid construct pNS3_hSK3. HEK293 tissue culture cells were grown in DMEM (Dulbecco's Modified Eagle Medium) supplemented with 10% FCS (foetal calf serum) at 37° C. in 5% CO2. […]
Experiments are carried out on one of several patch-clamp set-ups. […] Data are stored directly on the hard-disk and analysed by IGOR software (Wavemetrics, Lake Oswega, Oreg., USA).
The whole-cell configuration of the patch-clamp technique is applied. […] Cell capacitance is electronically compensated and the resistance between the pipette and the cell interior (the series resistance, Rs) is measured and compensated for. […]
The intracellular (pipette) solution has the following composition (in mM): 105 KCl, 45 KOH, 10 EGTA, 1.21 MgCl2, 7.63 CaCl2, and 10 HEPES (pH=7.2 with HCl). The calculated free concentration of Ca^2+ in this solution is 300 nM and that of Mg^2+ is 1 mM. […]
Active compounds are quantified by calculating the change in baseline current at −20 mV. […]
(In general: Patch clamp records ionic current or voltage across a cell membrane.)

Structures are written as SMILES.

The melting point is the temperature, or range, at which the solid turns liquid. `Cc1cc(C)n(-c2nc(Nc3ccccc3)c3ccccc3n2)n1` [Compound B1, [2-(3,5-Dimethyl-pyrazol-1-yl)-quinazolin-4-yl]-phenyl-amine]: the melting point lay in the range of 262.4 to 265.3 °C.
`Cc1cc(C)n(-c2nc(NC3CCCCC3)c3ccccc3n2)n1` [Compound A8, Cyclohexyl-[2-(3,5-dimethyl-pyrazol-1-yl)-quinazolin-4-yl]-amine]: the “SC100 (Stimulating Concentration required for increasing the baseline current by 100%)” value in data set [1] worked out at 0.035 µM.
